Reference: patent publication US20140357512A1, “HISTONE DEACETYLASE (HDAC) BIOMARKERS IN MULTIPLE MYELOMA” (priority 2013, published 2014)

Test system: human myeloma cell line MM.1S
Assay: SILAC acetylated-lysine peptide profiling, HDAC inhibitor vs DMSO (light/heavy ratio)
Type: cell-based
Text: An embodiment of the invention comprises utilizing the SILAC method in order to quantitate changes in protein expression between two or more populations of cells. The SILAC method is a technique based on mass spectrometry that detects differences in protein abundance among samples using non-radioactive isotopic labeling. The SILAC method is known in the art, and described in detail in Ong et al., “Stable Isotope Labeling by Amino Acids in Cell Culture, SILAC, as a Simple and Accurate Approach to Expression Proteomics”, Molecular & Cellular Proteomics, vol. 1, pp. 376-386 (2002), which is incorporated herein by reference in its entirety.
Briefly, the SILAC method involves growing two populations of cells in cell culture. The first population of cells is grown in growth media containing normal amino acids (“normal media”). The second population of cells is grown in media lacking a standard essential amino acid (such as lysine), but is then supplemented with a non-radioactive, isotopically labeled form of that essential amino acid (such as lysine labeled with ^13C atoms, rather than normal ^12C atoms), which is called “heavy media”. When the two populations of cells are each growing in the medium, they incorporate the amino acids into all of their proteins. The growth of cells maintained in the heavy media is no different from that in normal media. All peptides containing the heavy amino acids are heavier than their normal counterparts. The cells from each of the two populations of cells are lysed. The lysates from each of the two cell populations are then combined. The combined cell lysates are then analyzed by mass spectrometry. Pairs of chemically identical peptides of different stable isotope composition can be differentiated in a mass spectrometer due to their difference in mass. The ratio of peak intensities in the mass spectrum for such peptide pairs reflects the abundance ratio for the two proteins.
This example describes SILAC studies that were performed to compare the effects of three different HDAC inhibitors (Compound A, Compound B, and tubastatin A) to a control on a human multiple myeloma cell line. The HDAC inhibitors were also compared amongst themselves to determine differences in their effects.
A human myeloma cell line MM.1S was grown using either ^12C (light) or ^13C (heavy) lysine containing culture medium. The “heavy” cells were treated with DMSO as the control, and the “light” cells were treated with a single HDAC inhibitor at 37° C. for 6 hours. The heavy and light cells were lysed, and the lysates were mixed in 1:1 ratio and digested with the protease trypsin. The acetylated lysine containing peptides (due to the action of the HDAC inhibitor) in the digested peptide pool were captured by a non-specific anti-acetylated lysine antibody cocktail (the antibodies identify both light and heavy acetylated peptides), and subjected to mass spectrometry analysis in order to identify thousands of individual peptides.
Thousands of peptides were identified in pairs (^12C and ^13C) due to their known mass differences. The amino acid sequence and quantitative ratio (Light/Heavy) of a given peptide in two differentially treated cell lysates were then determined and annotated with their possible protein (gene) sources.
As stated above, three HDAC inhibitors (Compound A, Compound B, and Tubastatin A) were used. Thus, the SILAC method was performed three times, with a different HDAC inhibitor compared to a control each time. Accordingly, there are three pairs of quantitative data in the table below, i.e., Compound A:DMSO, Compound B:DMSO, and Tubastatin A:DMSO. A cut-off of 1.30 fold of change (increase or decrease) was then used to determine “changed” or “+” in the table, and any peptides with a fold of change less than 1.3 fold were determined to be “unchanged” or “0” in the table. Those peptides that were not identified were marked as “NA” in the table. […]

CN1CCc2c(c3ccccc3n2Cc2ccc(C(=O)NO)cc2)C1 [Tub A]
light to heavy ratio (L/H ratio) of acetylated peptide YFDEK(ac)IAK (SEQ ID NO: 563) (D-beta-hydroxybutyrate dehydrogenase mitochondrial [280], gene BDH1, inhibitor:DMSO): 0.00 log 2
light to heavy ratio (L/H ratio) of acetylated peptide, log 2 scale (DAAGSGDK(ac)PGADTGR (SEQ ID NO: 185), 39S ribosomal protein L53 mitochondrial [105], MRPL53): 0.38
light to heavy ratio (L/H ratio) of acetylated peptide, log 2 scale (DAISGIGTDEK(ac)CLIEILASR (SEQ ID NO: 128), Annexin A6 [113], ANXA6): 0.67
L/H ratio of acetylated peptide FK(ac)DPNCVGTVLASR (SEQ ID NO: 30) (DAZAP1 [59], log 2 scale, drug vs DMSO): −0.51
light to heavy ratio (L/H ratio) of acetylated peptide, log 2 scale (DCDHADEQK(ac)CYSCGEFGHIQK (SEQ ID NO: 145), Isoform 1 of Cellular nucleic acid-binding protein [118], CNBP): −0.38
L/H ratio of acetylated peptide APTIVGK(ac)SSLNPILFR (SEQ ID NO: 31) (DDOST [189], log 2 scale, drug vs DMSO): −0.51
L/H ratio of acetylated peptide FGNPGEK(ac)LVK (SEQ ID NO: 34) (DDX5 [40], log 2 scale, drug vs DMSO): 0.45
L/H ratio of acetylated peptide DWVLNEFK(ac)HGK (SEQ ID NO: 33) (DDX5 [388], log 2 scale, drug vs DMSO): −0.41
L/H ratio of acetylated peptide FEK(ac)NFYVEHPEVAR (SEQ ID NO: 32) (DDX17 [132], log 2 scale, drug vs DMSO): −0.42
light to heavy ratio (L/H ratio) of acetylated peptide, log 2 scale (DELGDYLK(ac)PK (SEQ ID NO: 184), 39S ribosomal protein L46 mitochondrial [265], MRPL46): −0.96
L/H ratio of acetylated peptide (DHPLPEVAHVK(ac)HLSASQK (SEQ ID NO: 381), Cytochrome c oxidase subunit 4 isoform 1 mitochondrial [53], COX4I1): 0.00 log 2
light to heavy ratio (L/H ratio) of acetylated peptide, log 2 scale (DK(ac)TQYIFNNMVLK (SEQ ID NO: 182), Alpha-mannosidase 2 [191], MAN2A1): −0.45
L/H ratio of acetylated peptide ELNK(ac)ILEGR (SEQ ID NO: 2) (DLAT [466], log 2 scale, drug vs DMSO): 0.45
light to heavy ratio (L/H ratio) of acetylated peptide, log 2 scale (DLEK(ac)WQNNLLPSR (SEQ ID NO: 211), 40S ribosomal protein 515a [88], RPS15A): −0.46
light to heavy ratio (L/H ratio) of acetylated peptide, log 2 scale (DLMTDLK(ac)SEISGDLAR (SEQ ID NO: 129), Annexin A6 [418], ANXA6): 0.42
L/H ratio of acetylated peptide VVK(ac)HPIFER (SEQ ID NO: 35) (DNAJB11 [247], log 2 scale, drug vs DMSO): −0.91
light to heavy ratio (L/H ratio) of acetylated peptide, log 2 scale (DSGNK(ac)PPGLLPR (SEQ ID NO: 160), Isoform 1 of Glutathione S-transferase kappa 1 [54], GSTK1): 0.47
light to heavy ratio (L/H ratio) of acetylated peptide, log 2 scale (DVK(ac)FGADAR (SEQ ID NO: 173), 60 kDa heat shock protein mitochondrial [31], HSPD1): −0.66
L/H ratio of acetylated peptide SFDSEFK(ac)LACK (SEQ ID NO: 8) (DYNC1H1 [4283], log 2 scale, drug vs DMSO): 0.44
light to heavy ratio (L/H ratio) of acetylated peptide LNLDK(ac)MMEQK (SEQ ID NO: 603) (Dihydrolipoyl dehydrogenase mitochondrial [122], gene DLD, inhibitor:DMSO): 0.00 log 2
light to heavy ratio (L/H ratio) of acetylated peptide DTYIENEK(ac)LISGK (SEQ ID NO: 352) (Dolichyl-diphosphooligosaccharide--protein glycosyltransferase subunit 1 precursor [626], RPN1, drug:DMSO): 0.00 log 2
light to heavy ratio (L/H ratio) of acetylated peptide YNIEK(ac)DIAAHIK (SEQ ID NO: 553) (Dynein light chain 1 cytoplasmic [36], gene DYNLL1, inhibitor:DMSO): 0.00 log 2
light to heavy ratio (L/H ratio) of acetylated peptide YNIEK(ac)DIAAYIK (SEQ ID NO: 331) (Dynein light chain 2 cytoplasmic [36], DYNLL2, drug:DMSO): 0.00 log 2
light to heavy ratio (L/H ratio) of acetylated peptide, log 2 scale (EAALEPSMEK(ac)IFK (SEQ ID NO: 157), cDNA FLJ59630 highly similar to Growth hormone-inducible transmembrane protein [76], GHITM): −0.68
light to heavy ratio (L/H ratio) of acetylated peptide, log 2 scale (EDQK(ac)PVMDDQR (SEQ ID NO: 141), Isoform 1 of HLA class I histocompatibility antigen gamma chain [14], CD74): −0.79
L/H ratio of acetylated peptide TSK(ac)NK(ac)SSLSR (SEQ ID NO: 14) (EP300 [1558:1560], log 2 scale, drug vs DMSO): 0.42
light to heavy ratio (L/H ratio) of acetylated peptide, log 2 scale (EQEHMINWVEK(ac)HVVQSISTQQEK (SEQ ID NO: 132), ATP synthase subunit b mitochondrial [221], ATP5F1): 0.77
light to heavy ratio (L/H ratio) of acetylated peptide, log 2 scale (EVHK(ac)QVVESAYEVIK (SEQ ID NO: 181), Isoform 1 of L-lactate dehydrogenase A chain [232], LDHA): −0.67
light to heavy ratio (L/H ratio) of acetylated peptide, log 2 scale (EVQTNDLK(ac)EVVNK (SEQ ID NO: 223), 40S ribosomal protein S3a [182], SNORD73A, RPS3A): −0.60
light to heavy ratio (L/H ratio) of acetylated peptide TFK(ac)GVVDVVMK (SEQ ID NO: 550) (Elongation factor G 2 mitochondrial precursor [265], gene GFM2, inhibitor:DMSO): 0.00 log 2
light to heavy ratio (L/H ratio) of acetylated peptide KSDYIK(ac)LYVR (SEQ ID NO: 315) (Endoplasmin [410], HSP90B1, drug:DMSO): −0.70 log 2
light to heavy ratio (L/H ratio) of acetylated peptide EK(ac)NLLHVTDTGVGMTR (SEQ ID NO: 314) (Endoplasmin[ 142], HSP90B1, drug:DMSO): −0.84 log 2
light to heavy ratio (L/H ratio) of acetylated peptide EVEEDEYK(ac)AFYK (SEQ ID NO: 261) (Endoplasmin[ 356], HSP90B1, drug:DMSO): −0.89 log 2
light to heavy ratio (L/H ratio) of acetylated peptide K(ac)EELTLEGIR (SEQ ID NO: 510) (Eukaryotic initiation factor 4A-I [238], gene EIF4A1, inhibitor:DMSO): 0.00 log 2
light to heavy ratio (L/H ratio) of acetylated peptide SHLAK(ac)EGLYQYK (SEQ ID NO: 533) (Eukaryotic translation initiation factor 3 subunit A [68], gene EIF3A, inhibitor:DMSO): 0.00 log 2
light to heavy ratio (L/H ratio) of acetylated peptide, log 2 scale (FEK(ac)EQQQLNWK (SEQ ID NO: 179), Isoform Long of Integrin beta-7 [763], ITGB7): −0.47
light to heavy ratio (L/H ratio) of acetylated peptide, log 2 scale (FFTVK(ac)LPVALDPGAK (SEQ ID NO: 209), Dolichyl-diphosphooligosaccharide--protein glycosyltransferase subunit 1 precursor [155], RPN1): −0.39
L/H ratio of acetylated peptide (FGIAAK(ac)YQLDPTASISAK (SEQ ID NO: 479), Isoform 2 of Voltage-dependent anion-selective channel protein 2 [224], VDAC2): 0.00 log 2
light to heavy ratio (L/H ratio) of acetylated peptide, log 2 scale (FLNAENAQK(ac)FK (SEQ ID NO: 200), Ran-specific GTPase-activating protein [150], RANBP1): −0.68
light to heavy ratio (L/H ratio) of acetylated peptide, log 2 scale (FLTK(ac)GDNNAVDDR (SEQ ID NO: 218), Putative signal peptidase complex catalytic subunit SEC11B [101], SEC11B): 0.82
light to heavy ratio (L/H ratio) of acetylated peptide, log 2 scale (FNQK(ac)GEVYK (SEQ ID NO: 149), Lipoamide acyltransferase component of branched-chain alpha-keto acid dehydrogenase complex mitochondrial [435], DBT): 0.39
light to heavy ratio (L/H ratio) of acetylated peptide, log 2 scale (FWNK(ac)FLENK (SEQ ID NO: 187), NADH dehydrogenase [ubiquinone] 1 beta subcomplex subunit 6 [49], NDUFB6): 0.54
light to heavy ratio (L/H ratio) of acetylated peptide AVDLIQK(ac)HK (SEQ ID NO: 546) (Flap endonuclease 1 [252], gene FEN1, inhibitor:DMSO): 0.00 log 2
L/H ratio of acetylated peptide TCEESSFCK(ac)R (SEQ ID NO: 36) (GANAB [48], log 2 scale, drug vs DMSO): −0.51
